Experimental data from patent US12319655B2, “RAF kinase inhibitors and methods of use thereof” (Deciphera Pharmaceuticals, LLC, priority 2021, dated 2025).

Legend:
[1] = target: B-Raf kinase (SEQ. ID NO: 2) (Homo sapiens (Human), UniProt P15056); assay: Biochemical Assay for B-Raf (1); conditions: Table J, assay version (1); read-out: BRAF (1) IC50
Outline: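 IC50 derived by four-parameter sigmoidal fit of percent inhibition, normalised to uninhibited and reference-inhibitor controls, using reaction rates over 4–5 h. Coupled spectrophotometric readout (NADH loss at 340 nm, 6 h, 30° C.); 1 mM ATP, 30.1 nM MEK, 0.13 nM B-Raf, pH 7.5 Tris buffer, 1% DMSO.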

[2] = system: Miapaca-2 cells; assay: MiaPaca-2 Cell Proliferation Assay (1); type: cell-based; conditions: Homo sapiens, MIA PaCa-2, single agent, read-out: MiaPaca2 (1) IC50
Outline: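 Resazurin was added after compound exposure and incubated 5-6 h, then fluorescence read at 540 nm excitation and 600 nm emission to give IC50.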

[3] = system: H2405 cells; assay: H2405 Cell Proliferation Assay (1); type: cell-based; conditions: Homo sapiens, NCI-H2405
Procedure: H2405 Cell Proliferation Assay (1)
H2405 cells (catalog #CRL-5994) are obtained from the American Type Culture Collect (ATTC, Manassas, VA). Briefly, cells were grown in RPMI 1640 supplemented with 5% characterized fetal bovine serum (Invitrogen, Carlsbad, CA) and 1% Penicillin/Streptomycin/L-Glutamine at 37° C., 5% CO2, and 95% humidity. Cells are expanded until reaching 70-95% confluency at which point they are sub-cultured or harvested for assay use. A serial dilution of test compound is dispensed into a 96-well black clear bottom plate in triplicate. Three thousand cells are added per well in 200 μL complete growth medium in the 96-well plate. Plates are incubated for 67-72 h at 37° C., 5% CO2, and 95% humidity. At the end of the incubation, 40 μL of a 440 μM solution of resazurin (Sigma, St. Louis, MO) in PBS is added to each well of the plate and plates are incubated for an additional 5-6 h at 37° C., 5% CO2, and 95% humidity. Plates are read on a Synergy2 or equivalent reader (Biotek, Winooski VT) using an excitation of 540 nm and an emission of 600 nm. Data is analyzed using Prism software (GraphPad, San Diego, CA) to calculate IC50 values.

[4] = target: B-Raf (V600E) (SEQ. ID NO: 4) kinase (Homo sapiens (Human), UniProt P15056, V600E); assay: Biochemical Assay for B-Raf (V600E) (1); conditions: Table J, BRAF V600E, assay version (1); read-out: BRAF VE (1) IC50
Chain of B-Raf (V600E) (SEQ. ID NO: 4) kinase (P15056 416-766 V600E): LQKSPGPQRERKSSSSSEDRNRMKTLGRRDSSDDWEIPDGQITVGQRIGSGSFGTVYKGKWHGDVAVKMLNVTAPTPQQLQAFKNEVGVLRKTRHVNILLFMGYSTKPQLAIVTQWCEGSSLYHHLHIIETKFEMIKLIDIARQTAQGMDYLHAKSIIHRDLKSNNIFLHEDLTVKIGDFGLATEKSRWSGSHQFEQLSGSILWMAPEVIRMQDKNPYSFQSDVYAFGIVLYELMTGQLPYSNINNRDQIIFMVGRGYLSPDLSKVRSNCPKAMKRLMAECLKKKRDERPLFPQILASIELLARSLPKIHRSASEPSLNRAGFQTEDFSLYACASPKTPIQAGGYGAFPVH
Outline: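 Serially diluted compounds tested against 0.03 nM enzyme with 30.1 nM MEK substrate and 1 mM ATP (Tris pH 7.5, 15 mM MgCl2), ATP use coupled to NADH loss via PK/LDH. A340 monitored continuously 6 h, 30 °C; IC50 fitted (four-parameter) from the 3–4 h rate versus no-compound and known-inhibitor controls.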

Chain of B-Raf kinase (SEQ. ID NO: 2) (P15056 416-766): as the sequence (P15056 416-766 V600E) above, with E185V counted along it

Row | SMILES | IC50 [1] | IC50 [2] | IC50 [3] | IC50 [4]
1 | Cc1ccc(NC(=O)c2cccc(C(C)(C)C#N)c2)cc1-c1cc(OCCO)nc(-c2ccnc3c2CC(=O)N3)c1 [Example 108] | ≤ 100 nM | 1000 to 10000 nM | ≤ 100 nM | ≤ 100 nM
2 | Cc1ncc(NC(=O)c2ccnc(C(C)(C)C#N)c2)cc1-c1cccc(-c2ccnc3[nH]cnc23)c1 [Example 111] | 500 to 1000 nM | 1000 to 10000 nM | 1000 to 10000 nM | ≤ 100 nM
3 | Cc1ccc(NC(=O)c2ccnc(C(C)(C)C#N)c2)cc1-c1cncc(-c2ccnc(NC(=O)C3CC3)c2)n1 [Example 112] | ≤ 100 nM | 1000 to 10000 nM | ≤ 100 nM | ≤ 100 nM
4 | Cc1ccc(NC(=O)c2ccnc(C(F)(F)F)c2)cc1-c1ccnc(-c2ccnc(N)c2)n1 [Example 122] | ≤ 100 nM | 1000 to 10000 nM | 1000 to 10000 nM | ≤ 100 nM
5 | CC(=O)Nc1cc(-c2cncc(-c3cc(NC(=O)c4cc(C(F)(F)F)ccn4)ccc3C)n2)ccn1 [Example 124] | ≤ 100 nM | 1000 to 10000 nM | ≤ 100 nM | ≤ 100 nM
6 | CC(=O)Nc1cc(-c2cncc(-c3cc(NC(=O)c4cccc(C(C)(C)C#N)c4)ccc3C)n2)ccn1 [Example 125] | ≤ 100 nM | 500 to 1000 nM | ≤ 100 nM | ≤ 100 nM
7 | Cc1ncc(NC(=O)c2ccnc(C(C)(C)C#N)c2)cc1-c1cccc(-c2ncnc3[nH]ncc23)c1 [Example 129] | ≤ 100 nM | 1000 to 10000 nM | 100 to 500 nM | ≤ 100 nM
8 | Cc1ncc(NC(=O)c2ccnc(C3CC3)c2)cc1-c1cccc(-c2ncnc3[nH]ncc23)c1 [Example 131] | ≤ 100 nM | 1000 to 10000 nM | 1000 to 10000 nM | ≤ 100 nM
9 | Cc1ccc(NC(=O)c2ccnc(C(C)(C)C#N)c2)cc1-c1cccc(-c2ccnc3[nH]ncc23)c1 [Example 134] | ≤ 100 nM | 1000 to 10000 nM | 100 to 500 nM | ≤ 100 nM
10 | Cc1ccc(NC(=O)c2ccnc(C(C)(C)C#N)c2)cc1-c1ccnc(-c2ccnc(C(=O)NC3CC3)c2)c1 [Example 162] | 100 to 500 nM | 1000 to 10000 nM | 100 to 500 nM | ≤ 100 nM
11 | CNC(=O)c1cc(-c2nccc(-c3cc(NC(=O)c4ccnc(C(C)(C)C#N)c4)c(F)cc3C)n2)ccn1 [Example 166] | 100 to 500 nM | 1000 to 10000 nM | 500 to 1000 nM | ≤ 100 nM
12 | CNC(=O)c1cc(-c2cccc(-c3cc(NC(=O)c4ccnc(C(C)(C)C#N)c4)ccc3C)c2)ncn1 [Example 171] | ≤ 100 nM | 1000 to 10000 nM | 100 to 500 nM | ≤ 100 nM
13 | CNC(=O)c1cc(-c2cc(-c3cc(NC(=O)c4ccnc(C(C)(C)C#N)c4)c(F)cc3C)ccn2)ccn1 [Example 176] | 100 to 500 nM | 1000 to 10000 nM | 100 to 500 nM | ≤ 100 nM
14 | CNC(=O)c1cc(-c2cc(-c3cc(NC(=O)c4ccnc(C5(C#N)CC5)c4)ccc3C)ncn2)ccn1 [Example 178] | ≤ 100 nM | 1000 to 10000 nM | 100 to 500 nM | ≤ 100 nM
15 | Cc1ccc(NC(=O)c2ccnc(C3(C#N)CC3)c2)cc1-c1ccnc(-c2ccnc(NC(=O)C3CC3)c2)n1 [Example 180] | ≤ 100 nM | 1000 to 10000 nM | ≤ 100 nM | ≤ 100 nM
16 | Cc1ncc(NC(=O)c2ccnc(C(C)(C)C#N)c2)cc1-c1cccc(-c2cc(NC(=O)C3CC3)ncn2)c1 [Example 181] | ≤ 100 nM | 1000 to 10000 nM | ≤ 100 nM | ≤ 100 nM
